Our source for the Ki values is US8022209B2, “Substituted nitrogen-containing heteroaryl derivatives useful as modulators of the histamine H4 receptor” (Janssen Pharmaceutica NV, priority 2007, dated 2011).

In this assay the target is T1, human histamine H4 receptor (Homo sapiens, UniProt Q9H3N8).
T1 construct: expressed in transfected cells; host or cells: SK-N-MC cells or COS7 cells, transiently transfected with pH4R; cell membranes
Description: Binding Assay on Recombinant Human Histamine H4 Receptor. Particulars: competition binding vs 3H-histamine (5 nM, KD 5 nM), membranes of SK-N-MC or COS7 cells transfected with human H4R; Cheng-Prusoff; average of results obtained. How it is done:
Binding Assay on Recombinant Human Histamine H4 Receptor
SK-N-MC cells or COS7 cells were transiently transfected with pH4R and grown in 150 cm^2 tissue culture dishes. Cells were washed with saline solution, scraped with a cell scraper and collected by centrifugation (1000 rpm, 5 min). Cell membranes were prepared by homogenization of the cell pellet in 20 mM Tris-HCl with a polytron tissue homogenizer for 10 sec at high speed. Homogenate was centrifuged at 1000 rpm for 5 min at 4° C. The supernatant was then collected and centrifuged at 20,000×g for 25 min at 4° C. The final pellet was resuspended in 50 mM Tris-HCl. Cell membranes were incubated with ^3H-histamine (5-70 nM) in the presence or absence of excess histamine (10,000 nM). Incubation occurred at room temperature for 45 min. Membranes were harvested by rapid filtration over Whatman GF/C filters and washed 4 times with ice-cold 50 mM Tris HCl. Filters were then dried, mixed with scintillant and counted for radioactivity. SK-N-MC or COS7 cells expressing human histamine H4 receptor were used to measure the affinity of binding of other compounds and their ability to displace ^3H-ligand binding by incubating the above-described reaction in the presence of various concentrations of inhibitor or compound to be tested. For competition binding studies using ^3H-histamine, Ki values were calculated, based on an experimentally determined KD value of 5 nM and a ligand concentration of 5 nM, according to Y. C.

T1 sequence (Q9H3N8 whole entry): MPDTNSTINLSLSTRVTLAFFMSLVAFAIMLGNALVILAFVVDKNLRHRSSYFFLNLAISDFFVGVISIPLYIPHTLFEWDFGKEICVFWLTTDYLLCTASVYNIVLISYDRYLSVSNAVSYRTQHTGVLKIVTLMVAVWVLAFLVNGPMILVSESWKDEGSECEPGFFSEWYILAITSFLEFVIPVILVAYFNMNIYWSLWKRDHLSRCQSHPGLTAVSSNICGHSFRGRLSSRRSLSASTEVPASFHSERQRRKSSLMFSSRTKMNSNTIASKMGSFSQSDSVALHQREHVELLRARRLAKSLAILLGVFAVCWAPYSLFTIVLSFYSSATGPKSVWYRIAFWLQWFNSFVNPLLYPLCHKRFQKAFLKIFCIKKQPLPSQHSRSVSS

One may read the Ki as the equilibrium dissociation constant of an inhibitor or competing ligand from its target. For `Cc1ccc(F)cc1-c1ncnc(N2CCN(C)CC2)n1` [compound 123, 2-(5-Fluoro-2-methyl-phenyl)-4-(4-methyl-piperazin-1-yl)-[1,3,5]triazine], the inhibition constant Ki worked out at 60 nM. As for `CN1CCN(c2ccnc(-c3csc(C#N)c3)c2)CC1` [compound 129], the figure is 443 nM. As for `COc1cscc1-c1ncnc(N2CCN(C)CC2)n1` [compound 130, 2-(4-Methoxy-thiophen-3-yl)-4-(4-methyl-piperazin-1-yl)-[1,3,5]triazine], the figure is 643 nM; as for `CN1CCN(c2ncnc(-c3ccc(-c4ccccn4)s3)n2)CC1` [compound 131, 2-(4-Methyl-piperazin-1-yl)-4-(5-pyridin-2-yl-thiophen-2-yl)-[1,3,5]triazine], more than 10000 nM; as for `Cc1ccsc1-c1ncnc(N2CCN(C)CC2)n1` [compound 136], 79 nM. Under `CN1CCN(c2ncnc(-c3cc(F)cc(F)c3)n2)CC1` [compound 137, 2-(3,5-Difluoro-phenyl)-4-(4-methyl-piperazin-1-yl)-[1,3,5]triazine] stands 78 nM; under `CN1CCN(c2ncnc(-c3ccc(F)cc3Cl)n2)CC1` [compound 138, 2-(2-Chloro-4-fluoro-phenyl)-4-(4-methyl-piperazin-1-yl)-[1,3,5]triazine], 99 nM. As for `CN1CCN(c2ncnc(-c3ccccn3)n2)CC1` [compound 139, 2-(4-Methyl-piperazin-1-yl)-4-pyridin-2-yl-[1,3,5]triazine], the Ki is 857 nM. As for `Cc1ccsc1-c1ncnc(N2CCN(C)CC2)n1` [compound 140, 2-(4-Methyl-piperazin-1-yl)-4-(3-methyl-thiophen-2-yl)-[1,3,5]triazine], the figure is 52 nM. As for `CN1CCN(c2ncnc(-c3cc(Cl)sc3Cl)n2)CC1` [compound 143, 2-(2,5-Dichloro-thiophen-3-yl)-4-(4-methyl-piperazin-1-yl)-[1,3,5]triazine], the figure is 193 nM.

For `CN1CCN(c2ncnc(-c3csc4ccccc34)n2)CC1` [compound 144, 2-Benzo[b]thiophen-3-yl-4-(4-methyl-piperazin-1-yl)-[1,3,5]triazine], the Ki was 347 nM. Under `CN1CCN(c2ccnc(-c3ccc(-c4cccs4)s3)c2)CC1` [compound 145] stands 268 nM; under `Cc1nc(-c2cc(F)c(F)c(F)c2)nc(N2CCN(C)CC2)n1` [compound 147, 2-Methyl-4-(4-methyl-piperazin-1-yl)-6-(3,4,5-trifluoro-phenyl)-[1,3,5]triazine], 193 nM.

Consider `CN1CCN(c2ccnc(-c3sccc3Cl)c2)CC1` [compound 148], for which the Ki is 107 nM. On to `CN1CCN(c2ncnc(-c3cc(Cl)cs3)n2)CC1` [compound 151, 2-(4-Chloro-thiophen-2-yl)-4-(4-methyl-piperazin-1-yl)-[1,3,5]triazine], for which the inhibitory constant (Ki) came to 137 nM.
